# Experiments:
# Experiment in all cases: drug sensitivity score (DSS), CellTiter-Glo (DSS (AUC-based score)); higher = stronger drug effect (viability inhibition or cytotoxicity); extreme values may be limits of the assay
# Settings in all cases: incubation time: 72 h
# BT-474 = test system: BT-474
# Procedure, shortened: (§1)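 Normalisation on every plate relied on 0.1 % DMSO and a positive kill control. The plates, 384-well format, held compound at 5 concentrations 10-fold apart across a compound-specific 10,000-fold range, and breast cancer cell lines in 20 µl suspension were incubated on them for 72 h before CellTox Green and then CellTiter-Glo readings. The drug sensitivity score derives from the area under the fitted dose-response curve.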
# CAL-148 = test system: CAL-148
# Procedure, shortened: as §1
# CAL-51 = test system: CAL-51
# Procedure, shortened: as §1
# CAL-85-1 = test system: CAL-85-1
# Procedure, shortened: as §1
# DU-4475 = test system: DU-4475
# Procedure, shortened: as §1
# HCC1599 = test system: HCC1599
# Procedure, shortened: as §1
# HCC1937 = test system: HCC1937
# Procedure, shortened: as §1
# HDQ-P1 = test system: HDQ-P1
# Procedure, shortened: as §1
# MCF-10A = test system: MCF-10A
# Procedure, shortened: as §1
# MFM-223 = test system: MFM-223
# Procedure, shortened: as §1
Structure (SMILES),drug sensitivity score (BT-474),drug sensitivity score (CAL-148),drug sensitivity score (CAL-51),drug sensitivity score (CAL-85-1),drug sensitivity score (DU-4475),drug sensitivity score (HCC1599),drug sensitivity score (HCC1937),drug sensitivity score (HDQ-P1),drug sensitivity score (MCF-10A),drug sensitivity score (MFM-223)
CS(=O)(=O)c1ccc(C(=O)Nc2ccc(Cl)c(-c3ccccn3)c2)c(Cl)c1 [Vismodegib],0,0,0,0,0,0,0,0,0,0
Cc1c2oc3c(C)ccc(C(=O)N[C@@H]4C(=O)N[C@H](C(C)C)C(=O)N5CCC[C@H]5C(=O)N(C)CC(=O)N(C)[C@@H](C(C)C)C(=O)O[C@@H]4C)c3nc-2c(C(=O)N[C@@H]2C(=O)N[C@H](C(C)C)C(=O)N3CCC[C@H]3C(=O)N(C)CC(=O)N(C)[C@@H](C(C)C)C(=O)O[C@@H]2C)c(N)c1=O [Dactinomycin],21,25.7,26.4,22.8,30.3,16.4,21.7,24.4,23.6,15
CN1CCC(COc2cnc(-c3cccc(Cn4nc(-c5cccc(C#N)c5)ccc4=O)c3)nc2)CC1,0,0,0,0,0,0,0,0,0,0
CO[C@H]1C[C@@H]2CC[C@@H](C)[C@@](O)(O2)C(=O)C(=O)N2CCCC[C@H]2C(=O)O[C@H]([C@H](C)C[C@@H]2CC[C@@H](OC(=O)C(C)(CO)CO)[C@H](OC)C2)CC(=O)[C@H](C)/C=C(\C)[C@@H](O)[C@@H](OC)C(=O)[C@H](C)C[C@H](C)/C=C/C=C/C=C/1C [Temsirolimus],2.49,8.93,11.3,9.28,5.2,0,6.15,4.08,0,7.59
CN(C)C/C=C/C(=O)Nc1cc2c(Nc3ccc(F)c(Cl)c3)ncnc2cc1O[C@H]1CCOC1 [Afatinib],0,3.9,0,6.39,0,0,0,8.44,17.4,0
O=C(c1ccc(C(=O)N2CCC(N3CCCC3)CC2)c(Nc2ccccc2)c1)N1CCC(N2CCCC2)CC1 [UNC1215],0,0,0,0,0,0,0,0,0,0
Clc1ccc(C(c2ccccc2Cl)C(Cl)Cl)cc1 (stereo not given) [Mitotane],0,0,0,0,0,0,0,0,0,0
COc1cc(Nc2ncc3c(n2)-c2ccc(Cl)cc2C(c2c(F)cccc2OC)=NC3)ccc1C(=O)O [Alisertib],8.02,7.08,12.8,0,9.45,0,3.43,3.21,0,10.8
C=CCNC1=C2C[C@@H](C)C[C@H](OC)[C@H](O)[C@@H](C)/C=C(\C)[C@H](OC(N)=O)[C@@H](OC)/C=C\C=C(/C)C(=O)NC(=CC1=O)C2=O [Tanespimycin],14.5,16.3,20.7,13.3,20.2,8.46,16.5,19,21.6,16.8
COc1cccc2cc(-c3nc([C@H]4CC[C@H](C(=O)O)CC4)n4ncnc(N)c34)[nH]c12 [OSI-027],4.09,2.6,4.69,5.52,2.39,0,3.56,7.43,4.28,6.51
COc1cccc2c1C(=O)c1c(O)c3c(c(O)c1C2=O)C[C@@](O)(C(=O)CO)C[C@@H]3O[C@H]1C[C@H](N)[C@H](O)[C@H](C)O1 [Doxorubicin],7.08,8.35,12.4,2.97,8.65,1.68,0,2.13,1.13,0
CN1CC[C@H](c2c(O)cc(O)c3c(=O)cc(-c4ccccc4Cl)oc23)[C@H](O)C1 [Alvocidib],16.9,11.4,19,16.3,17.3,14.7,13.2,16.5,16.2,16.1
Nc1ccn([C@@H]2O[C@H](CO)[C@@H](O)[C@@H]2O)c(=O)n1 [Cytarabine],0.361,11.3,13.4,0,3.25,0,0,1.06,0,0
CC(=O)O[C@]1(C(C)=O)CC[C@H]2[C@@H]3C=C(C)C4=CC(=O)CC[C@]4(C)[C@H]3CC[C@@]21C [Megestrol acetate],0,0,0,0,0,0,0,0,0,0
N#CC[C@H](C1CCCC1)n1cc(-c2ncnc3[nH]ccc23)cn1 [Ruxolitinib],0.693,0,0,0,0,0,0,0,0,1.49
S=c1[nH]cnc2nc[nH]c12 [Mercaptopurine],5.51,0,0,1.24,4,5.32,8.73,9.67,0,0
Nc1nc(Cl)nc2c1ncn2[C@H]1C[C@H](O)[C@@H](CO)O1 [Cladribine],0,0,0,0,0,0,0,0,0,0
C[C@]1(c2nc3c(C(N)=O)cccc3[nH]2)CCCN1 [Veliparib],0.587,0,3.97,0,0,0,0,0,0,0
C=CC[C@@H]1/C=C(\C)C[C@H](C)C[C@H](OC)[C@H]2O[C@@](O)(C(=O)C(=O)N3CCCC[C@H]3C(=O)O[C@H](/C(C)=C/[C@@H]3CC[C@@H](O)[C@H](OC)C3)[C@H](C)[C@@H](O)CC1=O)[C@H](C)C[C@@H]2OC [Tacrolimus],0.128,0,0,0,0,0,0,0,0,0
OC[C@H]1O[C@@H](n2cnc3c2N=CNC[C@H]3O)C[C@@H]1O [Pentostatin],0.0029,0,0,0,0,0,0,0,0,0
CC[C@]1(O)C[C@@H]2CN(CCc3c([nH]c4ccccc34)[C@@](C(=O)OC)(c3cc4c(cc3OC)N(C)[C@H]3[C@@](O)(C(=O)OC)[C@H](OC(C)=O)[C@]5(CC)C=CCN6CC[C@]43[C@@H]65)C2)C1 [Vinblastine],14.3,13,18.4,20.7,8.05,17.2,9.45,7.5,10.9,13
CCN1CCN(c2ccc(Nc3cc(N(C)C(=O)Nc4c(Cl)c(OC)cc(OC)c4Cl)ncn3)cc2)CC1 [NVP-BGJ398],0,0,0,0,0,0,0,0,0,7.35
Cc1ccc(F)c(NC(=O)Nc2ccc(-c3cccc4[nH]nc(N)c34)cc2)c1 [Linifanib],0,0,1.94,0,0,0,0,0,0,0

# Source: the supplement of paper PMC4862054
